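Five concentrations, 48 hours, 96-well plates. GI50 is the concentration that inhibits growth by half.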 Activity calls are given as the source filed them. No stated cut-off is given here; in the data, active = GI50 up to about 1.1 µM and inactive = higher.
What was measured:
Experiment in all cases: inhibition of tumour cell growth, NCI panel, 48 h
786-0 = test system: 786-0
ACHN = test system: ACHN
CAKI-1 = test system: CAKI-1
COLO 205 = test system: COLO 205
HCC 2998 = test system: HCC 2998
HL-60 = test system: HL-60
HOP-62 = test system: HOP-62
HOP-92 = test system: HOP-92
KM12 = test system: KM12
LOX IMVI = test system: LOX IMVI
Malme-3M = test system: Malme-3M
NCI-H226 = test system: NCI-H226
NCI-H460 = test system: NCI-H460
OVCAR-3 = test system: OVCAR-3
RPMI-8226 = test system: RPMI-8226
SK-MEL-5 = test system: SK-MEL-5
SW-620 = test system: SW-620
TK-10 = test system: TK-10
UO-31 = test system: UO-31
PC-3 = test system: PC-3

Measured: GI50

CC(C)[Si](OCC1CC(C[C@H]2CC(C[C@H]3C[C@@H](CO[Si](C(C)C)(C(C)C)C(C)C)OC(C)(C)O3)OC(C)(C)O2)OC(C)(C)O1)(C(C)C)C(C)C (stereo partly drawn)
inactive: 786-0 > 100 µM | ACHN > 100 µM | CAKI-1 > 100 µM | COLO 205 > 100 µM | HCC 2998 > 100 µM | HL-60 > 100 µM | HOP-62 > 100 µM | HOP-92 > 100 µM | KM12 > 100 µM | LOX IMVI > 100 µM | Malme-3M > 100 µM | NCI-H226 > 100 µM | NCI-H460 > 100 µM | OVCAR-3 > 100 µM | RPMI-8226 > 100 µM | SK-MEL-5 > 100 µM | SW-620 > 100 µM | TK-10 > 100 µM | UO-31 > 100 µM

N#CC1C(=O)Nc2sc(C(=O)c3ccc(Br)cc3)c(N)c2C12CCCCC2 (stereo not drawn)
inactive: 786-0 31.4 µM | ACHN 35.6 µM | CAKI-1 27.9 µM | COLO 205 13.7 µM | HCC 2998 22.5 µM | HOP-62 38.5 µM | KM12 13.4 µM | LOX IMVI 24.1 µM | Malme-3M 26.1 µM | NCI-H226 7.8 µM | NCI-H460 28.2 µM | OVCAR-3 9.66 µM | PC-3 10.4 µM | RPMI-8226 19.9 µM | SK-MEL-5 14.6 µM | SW-620 16.6 µM | TK-10 33.2 µM | UO-31 16.8 µM

O=C(Nc1nc2ccc([N+](=O)[O-])cc2s1)C(=O)C(C1OC(=O)c2ccccc21)[N+](=O)[O-] (stereo not drawn)
inactive: 786-0 > 100 µM | ACHN 39.3 µM | CAKI-1 70.1 µM | COLO 205 > 100 µM | HCC 2998 > 100 µM | HL-60 63.2 µM | HOP-62 31.9 µM | HOP-92 20.4 µM | KM12 > 100 µM | LOX IMVI > 100 µM | Malme-3M > 100 µM | NCI-H226 55.8 µM | NCI-H460 > 100 µM | OVCAR-3 71 µM | RPMI-8226 56.2 µM | SK-MEL-5 64.6 µM | SW-620 > 100 µM | TK-10 69.2 µM | UO-31 20.3 µM

NC(=S)NNc1c([N+](=O)[O-])cnn(-c2ccccc2)c1=O
inactive: 786-0 20.3 µM | ACHN 18.7 µM | CAKI-1 19.6 µM | COLO 205 13.1 µM | HCC 2998 18.7 µM | HL-60 4.62 µM | HOP-62 19.2 µM | HOP-92 19.9 µM | KM12 14.7 µM | LOX IMVI 10.3 µM | Malme-3M 19.2 µM | NCI-H226 19.1 µM | NCI-H460 17.9 µM | OVCAR-3 17.6 µM | RPMI-8226 20.7 µM | SK-MEL-5 18.7 µM | SW-620 13.1 µM | TK-10 24 µM | UO-31 23.4 µM

Cc1ccc(Cl)c(NC(=O)C(=O)C(C(=O)c2ccncc2)C2OC(=O)c3ccccc32)c1 (stereo not drawn)
inactive: 786-0 > 100 µM | ACHN > 100 µM | CAKI-1 > 100 µM | COLO 205 > 100 µM | HCC 2998 > 100 µM | HL-60 > 100 µM | HOP-62 > 100 µM | HOP-92 > 100 µM | LOX IMVI > 100 µM | Malme-3M > 100 µM | NCI-H226 > 100 µM | NCI-H460 > 100 µM | RPMI-8226 > 100 µM | SK-MEL-5 > 100 µM | SW-620 > 100 µM | TK-10 > 100 µM | UO-31 > 100 µM

CC(=O)OC1COC(N2C(=O)C(=O)c3cc(Br)c([N+](=O)[O-])cc32)C(OC(C)=O)C1OC(C)=O (stereo not drawn)
inactive: 786-0 > 100 µM | ACHN > 100 µM | CAKI-1 > 100 µM | COLO 205 > 100 µM | HCC 2998 > 100 µM | HL-60 31 µM | HOP-62 > 100 µM | HOP-92 34.8 µM | KM12 > 100 µM | LOX IMVI 30.2 µM | Malme-3M 71 µM | NCI-H226 > 100 µM | NCI-H460 > 100 µM | OVCAR-3 48.2 µM | RPMI-8226 > 100 µM | SK-MEL-5 > 100 µM | SW-620 > 100 µM | TK-10 > 100 µM

CCOC(=O)NC(=O)c1cn(CCCOC(=O)NCCCCCCNC(=O)OCCCn2c(=O)c(C(=O)NC(=O)OCC)cn(C)c2=O)c(=O)n(C)c1=O
inactive: 786-0 > 100 µM | ACHN > 100 µM | CAKI-1 > 100 µM | COLO 205 > 100 µM | HCC 2998 > 100 µM | HL-60 > 100 µM | HOP-92 > 100 µM | KM12 > 100 µM | LOX IMVI > 100 µM | Malme-3M > 100 µM | NCI-H226 > 100 µM | NCI-H460 > 100 µM | OVCAR-3 > 100 µM | RPMI-8226 > 100 µM | SW-620 > 100 µM | TK-10 88.7 µM | UO-31 > 100 µM

C[C@H](CSC(=O)c1ccccc1)C(=O)N1c2ccccc2C[C@H]1C(=O)O
inactive: 786-0 > 10 µM | ACHN > 100 µM | CAKI-1 > 100 µM | COLO 205 63 µM | HCC 2998 91.8 µM | HL-60 33.7 µM | HOP-62 > 100 µM | KM12 > 10 µM | NCI-H226 > 100 µM | NCI-H460 > 10 µM | OVCAR-3 > 100 µM | PC-3 > 100 µM | SK-MEL-5 67.8 µM | SW-620 35.2 µM | TK-10 > 100 µM | UO-31 86.3 µM

CN1CCN(c2ccc3nc(C4=C(O)C(=O)c5c(nc(CCl)n5C)C4=O)[nH]c3n2)CC1
inactive: 786-0 8.61 µM | ACHN 10.3 µM | CAKI-1 13.5 µM | COLO 205 10.3 µM | HCC 2998 5.89 µM | HL-60 > 50 µM | HOP-62 9.51 µM | KM12 9.71 µM | LOX IMVI 8.15 µM | Malme-3M 3.66 µM | NCI-H226 14.7 µM | NCI-H460 20.2 µM | OVCAR-3 10.4 µM | PC-3 16.9 µM | RPMI-8226 26 µM | SK-MEL-5 24.2 µM | SW-620 20 µM | UO-31 2.47 µM

CC1(C)CCc2c(cc3c(c2O)CCC(C)(C)O3)O1
inactive: 786-0 > 10 µM | ACHN > 100 µM | CAKI-1 > 100 µM | COLO 205 > 100 µM | HCC 2998 > 100 µM | HL-60 27.3 µM | HOP-62 > 100 µM | KM12 > 100 µM | Malme-3M 12.3 µM | NCI-H226 > 100 µM | NCI-H460 57 µM | OVCAR-3 > 100 µM | PC-3 49.3 µM | SK-MEL-5 62.8 µM | SW-620 > 100 µM | TK-10 > 100 µM | UO-31 > 100 µM

O/N=C(\c1nc2ccc(Cl)cc2nc1O)C(O)c1ccc(Cl)cc1Cl (stereo not drawn)
inactive: 786-0 > 100 µM | ACHN > 100 µM | CAKI-1 > 100 µM | COLO 205 > 100 µM | HCC 2998 > 100 µM | HL-60 > 100 µM | HOP-62 > 100 µM | HOP-92 > 100 µM | KM12 > 100 µM | LOX IMVI > 100 µM | Malme-3M > 100 µM | NCI-H226 > 100 µM | NCI-H460 > 100 µM | OVCAR-3 > 100 µM | RPMI-8226 > 100 µM | SK-MEL-5 > 100 µM | SW-620 > 100 µM | UO-31 > 100 µM

C[C@H]1S[C@H](c2c(F)cccc2F)n2c1nc1ccccc12
inactive: 786-0 64.9 µM | ACHN 55.1 µM | CAKI-1 74 µM | COLO 205 37 µM | HCC 2998 64.7 µM | HOP-62 > 100 µM | KM12 86.5 µM | Malme-3M 41.5 µM | NCI-H226 > 100 µM | NCI-H460 25.4 µM | OVCAR-3 24.2 µM | PC-3 33.7 µM | RPMI-8226 37.5 µM | SK-MEL-5 20.2 µM | SW-620 88.1 µM | TK-10 > 100 µM | UO-31 34.4 µM

Cc1ccc(NC(=O)CC2Sc3ccccc3NC2=O)c(C)c1 (stereo not drawn)
inactive: 786-0 13.7 µM | ACHN 18.8 µM | CAKI-1 21.5 µM | COLO 205 8.55 µM | HCC 2998 11 µM | HL-60 2.73 µM | HOP-62 12.1 µM | HOP-92 17.4 µM | KM12 4.88 µM | LOX IMVI 19.6 µM | Malme-3M 14.7 µM | NCI-H226 14.8 µM | NCI-H460 11.4 µM | OVCAR-3 12.2 µM | RPMI-8226 12.8 µM | SK-MEL-5 6.97 µM | SW-620 11.4 µM | TK-10 20.2 µM | UO-31 13 µM

COc1ccc(/C=N/n2c(-c3ccccc3)n[nH]c2=O)cc1
inactive: 786-0 > 100 µM | ACHN > 100 µM | CAKI-1 > 100 µM | COLO 205 > 100 µM | HCC 2998 > 100 µM | HOP-62 > 100 µM | KM12 48.8 µM | Malme-3M > 100 µM | NCI-H226 > 100 µM | NCI-H460 > 100 µM | OVCAR-3 > 100 µM | PC-3 > 100 µM | RPMI-8226 > 100 µM | SW-620 > 100 µM | UO-31 95.3 µM

COc1ccc(N2C(=O)C3CC4=CC(=O)C[C@H]4[C@H]32)cc1 (stereo partly drawn)
inactive: 786-0 26.3 µM | ACHN 53.7 µM | CAKI-1 23.4 µM | COLO 205 52.5 µM | HCC 2998 45.1 µM | HOP-62 44.9 µM | KM12 44 µM | LOX IMVI 53.1 µM | NCI-H226 42.8 µM | NCI-H460 58.2 µM | OVCAR-3 57.7 µM | PC-3 28.4 µM | RPMI-8226 59.8 µM | SW-620 66.1 µM | TK-10 58.7 µM | UO-31 37.2 µM
